Results on 15 compounds are retold here after paper PMC5200956 (ChemMedChem, 2016).

Series [1] has as its system T. gondii (tachyzoites). Briefly: T. gondii tachyzoites growth assay. It counts as cell-based, Toxoplasma gondii. The following applies: means ± SD, n = 3.
The subject of series [2] is T. cruzi (amastigotes). Description: T. cruzi amastigote growth assay. The series is classed as cell-based, Trypanosoma cruzi. The following applies: for EC50: read-out: T. cruzi growth EC50, intracellular amastigotes, means ± SD, n = 3; for antiparasitic activity against T. cruzi (in words): amastigotes.
The nature of series [3]: Cytotoxicity for Vero cells. It counts as cell-based. The following applies: African green monkey.
Series [4] concerns the target TgFPPS. Briefly: TgFPPS enzyme inhibition. It counts as biochemical, Toxoplasma gondii. The following applies: read-out: TgFPPS IC50; means ± SD, n = 3.
Series [5] has as its target T1, HhFPPS (Homo sapiens, UniProt P14324).
T1 sequence (P14324 67-419 limits assumed): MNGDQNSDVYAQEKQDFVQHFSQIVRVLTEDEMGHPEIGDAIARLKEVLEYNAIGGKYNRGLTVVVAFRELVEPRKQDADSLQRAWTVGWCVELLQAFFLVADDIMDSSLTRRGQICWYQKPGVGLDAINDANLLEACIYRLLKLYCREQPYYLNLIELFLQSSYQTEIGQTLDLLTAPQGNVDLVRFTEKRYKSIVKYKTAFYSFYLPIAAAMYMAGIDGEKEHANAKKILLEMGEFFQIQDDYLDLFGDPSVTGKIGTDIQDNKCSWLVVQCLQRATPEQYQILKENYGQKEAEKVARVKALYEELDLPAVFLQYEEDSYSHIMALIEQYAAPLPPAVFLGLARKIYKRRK
Briefly: HhFPPS enzyme inhibition. The series is classed as biochemical. The following applies: read-out: HhFPPS IC50; means ± SD, n = 3.

For series [6], the system named is Vero cells. Briefly: Cytotoxicity for Vero cells. The following applies: read-out: Cytotoxicity EC50. It counts as cell-based.
The target in series [7] is T2, TcFPPS (Trypanosoma cruzi, UniProt Q8WS26).
T2 sequence (Q8WS26 1-425): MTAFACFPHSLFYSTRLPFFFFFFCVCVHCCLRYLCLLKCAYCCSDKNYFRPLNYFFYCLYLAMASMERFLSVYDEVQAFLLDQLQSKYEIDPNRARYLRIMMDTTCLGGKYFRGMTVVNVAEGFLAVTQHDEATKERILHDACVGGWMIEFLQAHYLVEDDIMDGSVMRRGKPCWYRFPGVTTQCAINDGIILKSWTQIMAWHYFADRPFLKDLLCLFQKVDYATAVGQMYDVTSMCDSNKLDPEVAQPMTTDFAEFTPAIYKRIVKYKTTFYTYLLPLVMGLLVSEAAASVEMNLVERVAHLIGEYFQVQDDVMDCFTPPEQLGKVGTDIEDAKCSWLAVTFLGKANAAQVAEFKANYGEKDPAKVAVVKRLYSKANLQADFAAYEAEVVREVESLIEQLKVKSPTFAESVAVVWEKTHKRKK
Briefly: TcFPPS enzyme inhibition. The series is classed as biochemical. The following applies: read-out: TcFPPS IC50; means ± SD, n = 3.

For series [8], the system named is T. cruzi squalene synthase (TcSQS). The following applies: cited from earlier work; for IC50: read-out: TcSQS IC50, enzymatic activity of TcSQS.
The subject of series [9] is T. gondii (tachyzoites). The following applies: read-out: T. gondii growth EC50; cited from earlier work.
Series [10] relates to T. cruzi (amastigotes). The following applies: read-out: T. cruzi growth EC50; cited from earlier work.
The mark [11] stands for this setting: Toxoplasma gondii, read-out: T. gondii growth EC50, tachyzoites.
The mark [12] stands for this setting: read-out: T. gondii growth EC50, tachyzoites.

Where two headings read alike, the source gives them in different places.

For `N#CSCCOc1cccc(Oc2ccccc2F)c1` [Compound 20, 3-(2-Fluorophenoxy)phenoxyethyl Thiocyanate], the concentration for a half-maximal effect (EC50) in [1] (setting [11]) is 3.1 µM; in series [1] (setting [12]), 3.12 ± 0.37 µM; in series [2] it was 7.01 ± 0.51 µM; in series [3] it was over 60 µM.
For `N#CSCCOc1cccc(Oc2cccc(F)c2)c1` [Compound 21, 3-(3-Fluorophenoxy)phenoxyethyl Thiocyanate], the EC50 in series [1] (setting [11]) was 1.6 µM; in series [1] (setting [12]) it was 1.63 ± 0.36 µM; in [2] it was 5.38 ± 0.82 µM; in [3] it was over 50 µM.
For `N#CSCCOc1cccc(Oc2ccc(F)cc2)c1` [Compound 22, 3-(4-Fluorophenoxy)phenoxyethyl Thiocyanate], in that order: 4.9 µM, 4.92 ± 1.94 µM, 5.69 ± 0.47 µM and over 55 µM.
Consider `N#CSCCOc1ccc(Oc2ccccc2F)cc1` [Compound 27, 4-(2-Fluorophenoxy)phenoxyethyl Thiocyanate], for which the concentration for a half-maximal effect (EC50) in [1] (setting [11]) was 4.5 µM; in series [1] (setting [12]) it was 4.54 ± 0.57 µM; in series [3], over 55 µM. Also, the “antiparasitic activity against T. cruzi (in words)” value (from here on “antiparasitic activity”) in series [2] is listed as “devoid of antiparasitic activity”.
Regarding `N#CSCCOc1ccc(Oc2ccncc2)cc1` [Compound 31, 4-(4-pyridyl)oxyphenoxyethyl Thiocyanate], the EC50 was 7.9 µM in series [1] (setting [11]) and over 200 µM in series [3]. Moreover, in series [2], the “antiparasitic activity” value is “free of antiparasitic activity”.
In the case of `O=P(O)(O)C(CNCCOc1ccc(Oc2ccccc2)cc1)P(=O)(O)O` [Compound 43, 1-[(4-Phenoxyphenoxyethylamino)ethyl]-1,1-bisphosphonic Acid], the EC50 in [1] (setting [12]) was 5.9 ± 0.07 µM; in [2], over 10 µM; in [6], over 100 µM. The concentration for half-maximal inhibition (IC50) was 0.094 ± 0.02 µM in series [4] and over 10 µM in series [5].
Regarding `O=P(O)(O)C(CSCCOc1ccc(Oc2ccccc2)cc1)P(=O)(O)O` [Compound 48], the values for the half-maximal effective concentration (EC50) in series [1] (setting [12]), in series [2] and in series [6] were over 10 µM, over 20 µM and over 200 µM, respectively. The values for the IC50 in series [4], in [7] and in series [5] were 0.362 ± 0.002 µM, 0.8 ± 0.12 µM and over 15 µM, respectively.
In the case of `O=P(O)(O)C(CNCCOc1cccc(Oc2ccccc2)c1)P(=O)(O)O` [Compound 53, 1-[(3-Phenoxyphenoxyethylamino)ethyl]-1,1-bisphosphonic Acid], the EC50 in series [1] (setting [12]) is 2.4 ± 0.7 µM; in series [2], over 10 µM; in series [6] it was over 50 µM. The values for the IC50 in series [4], in [7] and in [5] were 0.04 ± 0.002 µM, over 10 µM and over 10 µM, respectively. In series [2], the “antiparasitic activity” value is recorded as “devoid of activity”.
`O=P(O)(O)C(CSCCOc1cccc(Oc2ccccc2)c1)P(=O)(O)O` [Compound 58, 2-[3-(Phenoxy)phenoxyethylthio]ethyl-1,1-bisphosphonic Acid]: the EC50 was 0.67 ± 0.23 µM in series [1] (setting [12]); 0.7 µM in series [1] (read-out: T. gondii growth EC50, tachyzoites, listed as 2-[3-(phenoxy)phenoxyethylthio]ethyl-1,1-bisphosphonate); over 10 µM in series [2]; over 100 µM in [6]. For the same compound, the IC50 in [4] was 0.076 ± 0.019 µM; in [5], over 10 µM. For the same compound, the “antiparasitic activity” value in series [2] was “devoid of activity”.
For the compound `O=P(O)(O)C(CNCCOc1ccccc1)P(=O)(O)O` [Compound 63, 1-[(Phenoxyethylamino)ethyl]-1,1-bisphosphonic Acid], the concentration for a half-maximal effect (EC50) in series [1] (setting [12]) and in series [2] was over 10 µM each time. Moreover, the IC50 in series [4] is 0.18 ± 0.015 µM; in [7], 0.32 ± 0.04 µM; in series [5], over 10 µM.
In the case of `N#CSCCOc1ccc2ccccc2c1` [Compound 68, 2-(Naphthalen-2-yloxy)ethyl Thiocyanate], the concentration giving a half-maximal response (EC50) in series [1] (setting [11]) came out at 3.6 µM. In addition, in [2], the “antiparasitic activity” value is reported as “vanishing inhibitory action”.
As to `N#CSCCOc1cccc2ccccc12` [Compound 73, 2-(Naphthalen-1-yloxy)ethyl Thiocyanate], the EC50 in series [1] (setting [11]) is 3.1 µM; in [3], 7.5 µM. In addition, in series [2], the “antiparasitic activity” value is listed as “vanishing inhibitory action”.
Regarding `CO[C@@H]1CN(c2ccc(C#C[C@]3(O)CN4CCC3CC4)c(Cc3ccccc3)n2)C[C@@H]1O` [Compound E5700], in [8], the “type of inhibition of TcSQS” value was “mixed-type” and the concentration for half-maximal inhibition (IC50) was 0.00084 µM.
For `COCCCOc1ccc(C#C[C@@]2(O)CN3CCC2CC3)c(Cc2ccccc2)n1` [ER-119884], in series [8], the “type of inhibition of TcSQS” value is reported as “non-competitive” and the IC50 was 0.0035 µM.
For the compound `N#CSCCOc1ccc(Oc2ccccc2)cc1` [WC-9, 4-Phenoxyphenoxyethyl thiocyanate], the half-maximal effective concentration (EC50) in series [9] was 4.8 ± 0.41 µM; in [10], 5 ± 1.1 µM. The “type of inhibition of TcSQS” value in series [8] is listed as “non-competitive”.
